Data: patent US9879024B2, “Crystal forms of (R)-N-methylnaltrexone bromide and uses thereof” (Progenics Pharmaceuticals, Inc., priority 2007, dated 2018)

What was measured:
Assay type in all cases: physicochemical
[1] = Solubility of Form A at 37° C. under conditions that simulate the human GI tract (HPLC of filtrate); details: thermodynamic from solid, 37° C. overnight
Description: […] All solutions were stored overnight in a 37° C. oven, and then filtered through a Whatman 0.45 μm nylon syringe filter to remove insoluble material.

[2] = Equilibrium solubility of Form A at room temperature in solvents and aqueous buffers; details: thermodynamic from solid, read-out: Solubility at R.T.
Description: In each case, the equilibrium solubility of Form A at room temperature was measured by placing the compound in excess into different solvents and stirring overnight at ambient room temperature, protected from light. Solubility in the following solvents and aqueous buffers was evaluated at room temperature: methanol, ethanol, benzyl alcohol, dimethyl sulfoxide, water for injection, bacteriostatic water (containing 0.9% benzyl alcohol), 5% dextrose, normal saline (0.9% NaCl), pH 1.1 (glycine HCl), pH 4.2 (glycine HCl), pH 7.1 (phosphate buffer), and pH 9.1 (glycine). Solubilities are reported to the nearest mg/mL unless otherwise stated.

[3] = Water solubility of amorphous Compound 1; details: qualitative statement, no data given

C[N+]1(CC2CC2)CC[C@]23c4c5ccc(O)c4O[C@H]2C(=O)CC[C@@]3(O)[C@H]1C5.[Br-] (stereo partly drawn) [Form A, (R)-N-methylnaltrexone bromide]
solubility ([1]; aqueous buffer, pH 4.5 (acetate buffer)): 100 mg/mL
solubility ([1]; aqueous buffer, pH 6.8 (phosphate buffer)): 101 mg/mL
solubility ([1]; aqueous buffer, pH 9.0 (borate buffer)): 101 mg/mL
solubility ([1]; pH 1, simulated gastric fluid, 0.1N HCl): 101 mg/mL
solubility ([2]; aqueous buffer, pH 4.2 (glycine HCl buffer)): 73.8 mg/mL
solubility ([2]; aqueous buffer, pH 7.1 (phosphate buffer)): 74.9 mg/mL
solubility ([2]; aqueous buffer, pH 9.1 (glycine buffer)): 71.1 mg/mL
solubility ([2]; dimethyl sulfoxide, organic solvent or mixture, Dimethylsulfoxide, stirred overnight): > 170 mg/mL
solubility ([2]; organic solvent or mixture, Benzyl alcohol, stirred overnight): 85.5 mg/mL
solubility ([2]; organic solvent or mixture, Ethanol, stirred overnight): 6.1 mg/mL
solubility ([2]; organic solvent or mixture, Methanol, stirred overnight): 2.5 mg/mL
solubility ([2]; saline or isotonic, 5% Dextrose, stirred overnight): 61.3 mg/mL
solubility ([2]; saline or isotonic, Normal saline (0.9% NaCl), stirred overnight): 59.7 mg/mL
solubility ([2]; simulated gastric fluid, 0.1N HCl): 76.6 mg/mL
solubility ([2]; simulated gastric fluid, pH 1.1 (glycine HCl buffer)): 70.1 mg/mL
solubility ([2]; Bacteriostatic water (0.9% benzyl alcohol), stirred overnight): 86.5 mg/mL
solubility ([2]; Water for injection, stirred overnight): 73.5 mg/mL

C[N+]1(CC2CC2)CC[C@]23c4c5ccc(O)c4O[C@H]2C(=O)CC[C@@]3(O)[C@H]1C5.[Br-] (stereo partly drawn) [amorphous Compound 1, (R)-N-methylnaltrexone bromide]
water solubility [3]: enhanced water solubility
